Results reported in patent US20010049374A1 (priority 1997, published 2001).
Read-outs that look alike come from different tables or passages of the source.

Target: T1, urokinase enzyme Abbokinase (Homo sapiens, UniProt P00749)
T1 construct: purchased Abbott Laboratories, Abbott Park, Ill
Experiment: Determination of urokinase inhibition (Abbokinase, chromogenic substrate S-2444)
Type: biochemical

[1] = Inhibitory potency against urokinase, substrate S-2444 at 200 μM, enzyme 2-3 nM, pH 7.4, 405 nm, read-out: IC50
[2] = IC50, Inhibitory potency against urokinase, substrate S-2444 at 200 μM, enzyme 2-3 nM, pH 7.4, 405 nm

Experimental: Several vials were reconstituted as directed on the vial, aliquoted and stored frozen. The enzyme was further diluted in assay buffer and 10 μl was used in the assay. Enzyme concentration in the assay was 2-3 nM. […] The Spectromax® calculated the reaction rates which were used to calculate percent inhibition of the compounds of this invention versus the reaction rate of the enzyme in the absence of any inhibitor. The Ki's of the inhibitors were calculated from the percent inhibition and previously established Km.

Compound | IC50 [1] | other results
[H]/N=C(/N)c1ccc2cc(C=Cc3cccc(CO)c3)ccc2c1 [Example 96, (E)-6-[2-[(3-hydroxymethyl)phenyl]ethenyl]-2-naphthalenecarboximidamide] | 860 nM | –
6-(aminoiminomethyl)-N-(1H-indazol-6-yl)-2-naphthalenecarboxamide [Example 203] | 624 nM | –
4-[[6-(aminoiminomethyl)-2-naphthalenyl]ethynyl]-L-phenylalanine [Example 109] | 2850 nM | –
7-methoxy-8-(2-pyrimidinylamino)-2-naphthalenecarboximidamide [Example 100] | 3160 nM | –
N-[3-(methyl)phenyl]-6-aminoiminomethyl-2-naphthalenecarboxamide [Example 48] | 1300 nM | –
6-(aminoiminomethyl)-N-(1, 2, 3, 4-tetrahydro-2, 4-dioxo5-pyrimidinyl)-2-naphthalenecarboxamide [Example 189] | 1300 nM | –
CC(C)(C)OC(=O)NCc1ccc(C#Cc2ccc3cc(C(=N)N)ccc3c2)cc1 [Example 123, 1,1-dimethylethyl [[4-[[6-(aminoiminomethyl)-2-naphathalenyl]ethynyl]phenyl]methyl]carbamate] | 1240 nM | –
6-(aminoiminomethyl)-N-(1,3-benzodioxol-5-yl)-2-naphthalenecarboxamide [Example 188] | 220 nM | –
6-(aminoiminomethyl)-N-(6-methyl-2-pyridinyl)-2-naphthalenecarboxamide [Example 194] | 560 nM | –
N=C(N)c1ccc2cc(-c3ccccc3CO)ccc2c1 [Example 51, 6-[2-(Hydroxymethyl)phenyl]-2-naphthalenecarboximidamide] | – | IC50 [2]: 4700 nM
(E)-4-[2-(6-Aminoiminomethyl-2-naphthalenyl)ethenyl]benzenesulfonamide [Example 83] | 2240 nM | –
N-(6-Aminoiminomethyl-2-naphthalenyl)-N′-isopropylurea [Example 71] | 2390 nM | –
6-(aminoiminomethyl)-N-(5-pyrimidinyl)-2-naphthalenecarboxamide [Example 208] | 960 nM | –
4-[(6-Aminoiminomethyl-2-naphthalenyl)oxy]-N-methylbenzeneacetamide [Example 56] | 2900 nM | –
propyl [7-(aminoiminomethyl)-1-naphthalenyl]carbamate [Example 156] | 180 nM | –
N=C(N)c1ccc2cc(CCc3ccccc3)ccc2c1 [Example 42, 6-[2-(Phenyl)ethyl]-2-naphthalenecarboximidamide] | 2080 nM | –
N-[7-(aminoiminomethyl)-1-naphthalenyl]-2-hydroxyacetamide [Example 162] | 1330 nM | –
(E)-3-[7-(aminoiminomethyl)-2-methoxy-1-naphthalenyl)-2-propenamide [Example 120] | 930 nM | –
1,1-dimethylethyl [2-[3-[6-(aminoiminomethyl)-2-naphathalenyl]ethynyl]-6-methoxyphenyl]ethyl]carbamate [Example 122] | 330 nM | –
6-(aminoiminomethyl)-4-(3-furanyl)-N-[4-(trifluoromethyl)phenyl]-2-naphthalenecarboxamide [Example 114] | 344 nM | –
N=C(N)c1ccc2cc(C(=O)Nc3cccc(OCc4ccccc4)c3)ccc2c1 [Example 222] | 346 nM | –

Compound | IC50 [1] | other results
methyl 2-[[6-(aminoiminomethyl)-2-naphthalenyl]oxy]acetate [Example 185] | 3190 nM | –
6-(aminoiminomethyl)-N-phenyl-4-(2-pyrimidinylamino)-2-naphthalenecarboxamide [Example 166] | 2 nM | –
[H]/N=C(/N)c1ccc2cccc(C=Cc3ccc4c(c3)OCO4)c2c1 [Example 61, (E)-8-[2-(1,3-Benzodioxol-5-yl)ethenyl]-2-naphthalenecarboximidamide] | – | IC50 [2]: 730 nM
6-(aminoiminomethyl)-N-[3-(1-methylethoxy)phenyl]-2-naphthalenecarboxamide [Example 211] | 72 nM | –
6-(aminoiminomethyl)-N-(4-methyl-2-thiazolyl)-2-naphthalenecarboxamide [Example 199] | 2300 nM | –
6-(aminoiminomethyl)-N-(4-nitrophenyl)-2-naphthalenecarboxamide [Example 224] | 1770 nM | –
COc1ccc(C#Cc2ccc3cc(C(=N)N)ccc3c2)cc1CCN [Example 125, 6-[[3-(2-aminoethyl)-4-methoxyphenyl]ethynyl]-2-naphthalenecarboximidamide] | – | IC50 [2]: 230 nM
6-(aminoiminomethyl)-N-(4-ethylphenyl)-2-naphthalenecarboxamide [Example 142] | 540 nM | –
CSc1ccccc1-c1ccc2cc(C(=N)N)ccc2c1 [Example 57, 6-[2-(Methylthio)phenyl]-2-naphthalenecarboximidamide] | – | IC50 [2]: 3400 nM
6-(aminoiminomethyl)-4-[5-(ethylthio)-3-furanyl]-N-phenyl-2-naphthalenecarboxamide [Example 200] | 37 nM | –
6-(aminoiminomethyl)-N-(3-methyl-2-pyridinyl)-2-naphthalenecarboxamide [Example 196] | 620 nM | –
N=C(N)c1ccc2cc(NC(=O)Nc3ccc(CN)cc3)ccc2c1 [Example 140, N-[6-(aminoiminomethyl)-2-naphthalenyl]-N′-[(4-aminomethyl)phenyl]urea] | – | IC50 [2]: 460 nM
4-Amino-N-[3-(6-aminoiminomethyl-2-naphthalenyl)-2-propynyl]benzamide [Example 36] | 1750 nM | –
6-(aminoiminomethyl)-N-(6-methoxy-3-pyridinyl)-2-naphthalenecarboxamide [Example 187] | 613 nM | –
[H]/N=C(/N)c1ccc2cc(C=Cc3ccc(CN(C)C)cc3)ccc2c1 [Example 107, (E)-6-[2-[[4-(dimethylamino)methyl]phenyl]ethenyl]-2-naphthalenecarboximidamide] | 2340 nM | –
N-[4-(Aminomethyl)phenyl]-6-aminoiminomethyl-2-naphthalenecarboxamide [Example 8] | 100 nM | –
6-(aminoiminomethyl)-N-(2,3-dihydro-1H-inden-5-yl)-2-naphthalenecarboxamide [Example 118] | 121 nM | –
Methyl 3-[[7-(aminoiminomethyl)-1-naphthalenyl]amino]-3-oxopropionate [Example 17] | 4260 nM | –
N-[7-(aminoiminomethyl)-1-naphthalenyl]-1,3-benzodioxole-5-carboxamide [Example 19] | 2210 nM | –
6-(aminoiminomethyl)-N-(2-naphthalenyl)-2-naphthalenecarboxamide [Example 143] | 360 nM | –
N=C(N)c1ccc2cc(OCCc3ccc(N)cc3)ccc2c1 [Example 89, 6-[2-(4-Aminophenyl)ethoxy]-2-naphthalenecarboximidamide] | – | IC50 [2]: 6500 nM

Compound | IC50 [1] | other results
N=C(N)c1ccc2ccc(OCc3ccccc3)c(I)c2c1 [Example 5, 7-Benzyloxy-8-iodo-2-naphthalenecarboximidamide] | – | IC50 [2]: 2500 nM
N=C(N)c1ccc2cc(C#CCc3ccccc3)ccc2c1 [Example 33, 6-(3-Phenyl-1-propynyl)-2-naphthalenecarboximidamide] | – | IC50 [2]: 2400 nM
6-(aminoiminomethyl)-N-[4-(hydroxymethyl)phenyl]-2-naphthalenecarboxamide [Example 92] | 40 nM | –
6-(aminoiminomethyl)-N-(1H-pyrazol-3-yl)-2-naphthalenecarboxamide [Example 191] | 887 nM | –
methyl 4-[[[7-(aminoiminomethyl)-1-(2-pyrimidinylamino)-2-naphthalenyl]oxy]methyl]benzoate [Example 133] | 44 nM | –
N=C(N)c1ccc2cc(C3CC3c3ccc(CO)cc3)ccc2c1 (stereo not shown) [Example 215, 6-[2-[4-(hydroxymethyl)phenyl]-1-cyclopropyl]-2-naphthalenecarboximidamide] | – | IC50 [2]: 1100 nM
CC(=O)CCc1ccc2cc(C(=N)N)ccc2c1 [Example 46, 6-(3-Oxobutyl)-2-naphthalenecarboximidamide] | – | IC50 [2]: 2400 nM
COc1ccc2ccc(C(=N)N)cc2c1C1CCOC1 (racemic) [Example 62, (±)-7-Methoxy-8-(tetrahydro-3-furanyl)-2-naphthalenecarboximidamide] | – | IC50 (IC50): 640 nM
N=C(N)c1ccc2cc(C(=O)Nc3ccc(N)cc3)ccc2c1 [Example 9] | 1100 nM | –
6-(aminoiminomethyl)-4-[5-(propylsulfonyl)-3-furanyl]-N-phenyl-2-naphthalenecarboxamide [Example 228] | 25 nM | –
CSc1cc(-c2cc(C(=O)Nc3ccccc3)cc3ccc(C(=N)N)cc23)co1 [Example 154, 6-(aminoiminomethyl-4-[5-(methylthio)-3-furanyl)]-N-phenyl-2-naphthalenecarboxamide] | – | IC50 [2]: 35 nM
COc1ccc2ccc(C(=N)N)cc2c1I [Example 54, 7-Methoxy-8-iodo-2-naphthalenecarboximidamide] | – | IC50 [2]: 2700 nM
N=C(N)c1ccc2ccc(OCCO)cc2c1 [Example 30, 7-(2-Hydroxyethoxy)-2-naphthalenecarboximidamide] | – | IC50 [2]: 3600 nM
Methyl [7-(aminoiminomethyl)-1-naphthalenyl)carbamate [Example 16] | 30 nM | –
6-(aminoiminomethyl)-4-[5-(methoxymethyl)-3-furanyl]-N-phenyl-2-naphthalenecarboxamide [Example 230] | 103 nM | –
COc1cc2ccc(C(=N)N)cc2cc1OC [Example 3, 6,7-dimethoxy-2-naphthalenecarboximidamide] | – | IC50 [2]: 36000 nM
methyl 2-[4-[[[6-(aminoiminomethyl)-2-naphthalenyl]carbonyl]amino]phenoxy]acetate [Example 95] | 1730 nM | –
CC(C)CC#Cc1ccc2cc(C(=N)N)ccc2c1 [Example 31, 6-(4-Methyl-1-pentynyl)-2-naphthalenecarboximidamide] | – | IC50 [2]: 2930 nM
[H]/N=C(/N)c1ccc2ccc(OC)c(C=Cc3ccccc3)c2c1 [Example 27, (E)-{7-Methoxy-8-[2-(Phenyl)ethenyl]}-2-naphthaleneimidamide] | 930 nM | –
